Data published in PMC8522701 (Journal of nuclear medicine : official publication, Society …, 2012).

Legend:
[1] = system: Raji lymphoma mouse model; settings: in vivo; cited from earlier work
[2] = system: VLA-4–negative MDA-MB-231/fluc human breast cancer tumor cells; test: Cellular uptake assay, VLA-4-negative MDA-MB-231/fluc cells; type: cell-based; settings: coincubation with 1 μM nonradioactive ligand, 60 min, 37°C; P = 0.3
[3] = system: VLA-4–positive B16F10 mouse melanoma cells; test: Cellular uptake assay, VLA-4-positive B16F10 cells; type: cell-based; settings: 60 min, 37°C, P < 0.05

^64Cu-labeled 11-bis(carboxymethyl)-1,4,8,11-tetraazabicyclo[6.6.2] hexadecane (CB-TE2A)-LLP2A [^64Cu-CB-TE2A-LLP2A]
tracer uptake in tissues of Raji lymphoma mouse model [1]: uptake in the tumor, spleen, and bone marrow
blocking of cellular uptake with cold LLP2A in MDA-MB-231/fluc cells [2]: no significant blocking
cellular uptake (sum of internalized and cell surface-bound fractions) in B16F10 cells relative to MDA-MB-231 cells ([3]; 1 nM tracer, cpm/mg protein): higher
blocking of cellular uptake with cold LLP2A in B16F10 cells ([3]; coincubation with 1 μM nonradioactive ligand): blocking with cold LLP2A was observed
